In ChEMBL document CHEMBL1201862, “PubChem BioAssay data set” (2004):
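Grown in 96-well plates, cells were treated for 48 hours with each compound at five concentrations. Insufficient inhibition: endpoint recorded as highest concentration tested. The concentration for 50% growth inhibition is given as GI50.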 The source made the active and inactive calls. No stated cut-off is given here; in the data, active = GI50 up to about 1.1 µM and inactive = higher.

What was measured:
Assay in all cases: NCI tumour cell line growth inhibition, 48 h
[1] = test system: SK-MEL-2
[2] = test system: HCT-116
[3] = test system: SF-295
[4] = test system: COLO 205
[5] = test system: ACHN
[6] = test system: K562
[7] = test system: OVCAR-4
[8] = test system: PC-3
[9] = test system: HOP-92
[10] = test system: A498
[11] = test system: RPMI-8226
[12] = test system: NCI-H460
[13] = test system: HOP-62
[14] = test system: SK-MEL-28
[15] = test system: BT-549
[16] = test system: SF-539
[17] = test system: HT-29
[18] = test system: LOX IMVI
[19] = test system: Hs-578T

SMILES | GI50 [1] | GI50 [2] | GI50 [3] | GI50 [4] | GI50 [5] | GI50 [6] | GI50 [7] | GI50 [8] | GI50 [9] | GI50 [10] | GI50 [11] | GI50 [12] | GI50 [13] | GI50 [14] | GI50 [15] | GI50 [16] | GI50 [17] | GI50 [18] | GI50 [19]
CCCCCCCCCCCCn1c(=O)cc(NCCCC)c2cc3c(NCCCC)cc(=O)n(CCCCCCCCCCCC)c3nc21 | > 100 µM (inactive) | > 100 µM (inactive) | > 100 µM (inactive) | > 100 µM (inactive) | > 100 µM (inactive) | > 100 µM (inactive) | > 100 µM (inactive) | > 100 µM (inactive) | > 100 µM (inactive) | > 100 µM (inactive) | > 100 µM (inactive) | > 100 µM (inactive) | 53.8 µM (inactive) | > 100 µM (inactive) | > 100 µM (inactive) |  |  |  | 
COc1ccc(-c2nc(-c3cnccn3)n(C3OC(CO)C(O)C3O)n2)cc1 (stereo unspecified) | > 10 µM (inactive) |  | > 10 µM (inactive) |  | > 10 µM (inactive) | > 10 µM (inactive) | > 10 µM (inactive) | > 10 µM (inactive) | > 10 µM (inactive) |  |  | > 10 µM (inactive) |  |  | > 10 µM (inactive) | > 10 µM (inactive) | > 10 µM (inactive) | > 10 µM (inactive) | 
O=C1NC(=O)C2C(=O)NC(=O)C1C2Cc1ccco1 (stereo unspecified) | > 100 µM (inactive) |  | > 100 µM (inactive) | > 100 µM (inactive) | > 100 µM (inactive) | > 100 µM (inactive) | > 100 µM (inactive) |  | > 100 µM (inactive) | > 100 µM (inactive) | > 100 µM (inactive) | > 100 µM (inactive) |  | > 100 µM (inactive) |  | > 100 µM (inactive) | > 100 µM (inactive) | > 100 µM (inactive) | 
OCC(O)C(O)C(C=NNc1ncnc2ccc(Br)cc12)=NNc1ncnc2ccc(Br)cc12 (stereo unspecified) | 2.26 µM (inactive) | 0.404 µM (active) | 4.74 µM (inactive) | 0.366 µM (active) | 1.85 µM (inactive) | 2.58 µM (inactive) | 0.435 µM (active) | 4.73 µM (inactive) | 4.3 µM (inactive) | 26 µM (inactive) |  |  | 5.12 µM (inactive) |  |  | 3.13 µM (inactive) | 0.662 µM (active) | 0.991 µM (active) | 41.9 µM (inactive)
CN(C(=O)C1=CCC2(CC1)OCCO2)c1ccccc1I | > 100 µM (inactive) | > 100 µM (inactive) | > 100 µM (inactive) | > 100 µM (inactive) | > 100 µM (inactive) | > 100 µM (inactive) | > 100 µM (inactive) | > 100 µM (inactive) | > 100 µM (inactive) | > 100 µM (inactive) | > 100 µM (inactive) | > 100 µM (inactive) | > 100 µM (inactive) | > 100 µM (inactive) |  |  | > 100 µM (inactive) | > 100 µM (inactive) | 
Cc1ccc(C(=O)c2[nH]c(NCc3ccccc3)c(C(=S)Nc3ccccc3)c2N)cc1 | 10.8 µM (inactive) | 4.35 µM (inactive) | 5.06 µM (inactive) | 3.87 µM (inactive) | 11.4 µM (inactive) | 2.13 µM (inactive) | 2.74 µM (inactive) | 11.9 µM (inactive) | 6.58 µM (inactive) | 17 µM (inactive) | 2.15 µM (inactive) | 5.64 µM (inactive) | 15.5 µM (inactive) | 3.64 µM (inactive) | 7.94 µM (inactive) | 2.86 µM (inactive) | 3.24 µM (inactive) | 2.01 µM (inactive) | 
CCCCCCC(C)CC(CCCCCC)NCCOC(=O)c1ccc([N+](=O)[O-])cc1 (stereo unspecified) | 15.8 µM (inactive) | 11.7 µM (inactive) | 11.7 µM (inactive) | 2.17 µM (inactive) | 15.1 µM (inactive) | < 0.01 µM (active) | 11.7 µM (inactive) |  | 10.1 µM (inactive) |  |  |  | 16.3 µM (inactive) | 12.6 µM (inactive) | 16.4 µM (inactive) | 15.8 µM (inactive) | 5.43 µM (inactive) | 7.4 µM (inactive) | 18.7 µM (inactive)
N#Cc1c(N2CCCC2)ncn(-c2ccccc2)c1=O | > 100 µM (inactive) | > 100 µM (inactive) | > 100 µM (inactive) | > 100 µM (inactive) | > 100 µM (inactive) | > 100 µM (inactive) | > 100 µM (inactive) | > 100 µM (inactive) | > 100 µM (inactive) | > 100 µM (inactive) | > 100 µM (inactive) | > 100 µM (inactive) | > 100 µM (inactive) | > 100 µM (inactive) |  | > 100 µM (inactive) | > 100 µM (inactive) | > 100 µM (inactive) | > 100 µM (inactive)
CCOC(=O)CCN1C(=O)C(=O)N(c2ccc(OC)cc2)C1=S | > 100 µM (inactive) | > 100 µM (inactive) | > 100 µM (inactive) | > 100 µM (inactive) | > 100 µM (inactive) | 54.6 µM (inactive) | 63 µM (inactive) | > 100 µM (inactive) | > 100 µM (inactive) | > 100 µM (inactive) | > 100 µM (inactive) | 53.5 µM (inactive) | > 100 µM (inactive) | > 100 µM (inactive) |  | 97.7 µM (inactive) | > 100 µM (inactive) | > 100 µM (inactive) | 47.1 µM (inactive)
